Source: patent publication US6667316B1, “Pharmaceutically active isoindoline derivatives” (Celgene Corporation, priority 1999, dated 2003)

SMILES | melting point
CCOc1cc(C(CS(C)(=O)=O)N2C(=O)c3ccc([N+](=O)[O-])c([N+](=O)[O-])c3C2=O)ccc1OC (centres unmarked) | 122 to 124 °C
CCOc1cc(C(CS(C)(=O)=O)N2C(=O)c3cccc(NC(=O)C(C)N(C)C)c3C2=O)ccc1OC.Cl (centres unmarked) | 138 to 140 °C
CCOc1cc([C@H](CS(C)(=O)=O)N2C(=O)c3cccc(NC(=O)CN(C)C)c3C2=O)ccc1OC.Cl | 192 to 194 °C
CCOc1cc([C@@H](CS(C)(=O)=O)N2C(=O)c3cccc(NC(=O)CN(C)C)c3C2=O)ccc1OC.Cl | 202 to 204 °C
COc1ccc(C(CS(C)(=O)=O)N2C(=O)c3cccc(NC(=O)CN(C)C)c3C2=O)cc1OC.Cl (centres unmarked) | 178 to 180 °C
CCOc1cc(C(CS(C)(=O)=O)N2Cc3cccc(NC(=O)CN(C)C)c3C2=O)ccc1OC.Cl (centres unmarked) | 145 to 147 °C
CCOc1cc(C(CC(=O)N(C)C)N2C(=O)c3cccc(NC(=O)CN(C)C)c3C2=O)ccc1OC.Cl (centres unmarked) | 92 to 94 °C
CCOc1cc([C@@H](CC(=O)N(C)C)N2C(=O)c3cccc(NC(=O)CN(C)C)c3C2=O)ccc1OC.Cl | 122 to 124 °C
CCOc1cc(C(CS(C)(=O)=O)N2C(=O)c3ccc(N)c(N)c3C2=O)ccc1OC (centres unmarked) [Example 2, 2-[1-(3-Ethoxy-4-methoxyphenyl)-2-methylsulfonylethyl]-4,5-diaminoisoindoline-1,3-dione] | 205 to 207 °C
CCOc1cc(C(CS(C)(=O)=O)N2C(=O)c3cccc(NC(=O)C4CC4)c3C2=O)ccc1OC (centres unmarked) [Example 7, Cyclopropyl-N-{2-[1-(3-ethoxy-4-methoxyphenyl)-2-methylsulfonylethyl]-1,3-dioxoisoindolin-4-yl}carboxamide] | 153 to 155 °C
CCOc1cc(C(CS(C)(=O)=O)N2C(=O)c3cccc(NC(=O)CCl)c3C2=O)ccc1OC (centres unmarked) [Example 8, 2-Chloro-N-{2-[1-(3-ethoxy-4-methoxyphenyl)-2-methylsulfonylethyl]-1,3-dioxoisoindolin-4-yl}acetamide] | 166 to 168 °C
CCOc1cc(C(CS(C)(=O)=O)N2C(=O)c3cccc(NC(=O)CN)c3C2=O)ccc1OC (centres unmarked) [Example 9, 2-Amino-N-{2-[1-(3-ethoxy-4-methoxyphenyl)-2-methylsulfonylethyl]-1,3-dioxoisoindolin-4-yl}acetamide] | 111 to 112 °C
CCOc1cc(C(CS(C)(=O)=O)N2C(=O)c3cccc(NC(=O)C(F)(F)F)c3C2=O)ccc1OC (centres unmarked) [Example 11, N-{2-[1-(3-ethoxy-4-methoxyphenyl)-2-methylsulfonylethyl]-1,3-dioxoisoindolin-4-yl}-2,2,2-trifluoroacetamide] | 130 to 132 °C
CCOc1cc(C(CS(C)(=O)=O)N2C(=O)c3cccc(CONC=O)c3C2=O)ccc1OC (centres unmarked) [Example 12, N-{2-[1-(3-Ethoxy-4-methoxyphenyl)-2-methylsulfonylethyl]-1,3-dioxoisoindolin-4-yl}methoxycarboxamide] | 178 to 180 °C
CCOc1cc(C(CS(C)(=O)=O)N2C(=O)c3cccc(-c4nnc(C)o4)c3C2=O)ccc1OC (centres unmarked) [Example 15, 2-[1-(3-Ethoxy-4-methoxyphenyl)-2-methylsulfonylethyl]-4-(5-methyl-1,3,4-oxadiazol-2-yl)isoindoline-1,3-dione] | 99 to 101 °C
CCOc1cc(C(CC(C)O)N2C(=O)c3cccc(NC(C)=O)c3C2=O)ccc1OC (centres unmarked) [Example 24, N-{2-[1-(3-ethoxy-4-methoxyphenyl)-3-hydroxybutyl]-1,3-dioxoisoindolin-4-yl}acetamide] | 132 to 134 °C
CCOc1cc(C(CC(C)=O)N2C(=O)c3cccc(NC(C)=O)c3C2=O)ccc1OC (centres unmarked) [Example 25, N-{2-[1-(3-Ethoxy-4-methoxyphenyl)-3-oxobutyl]-1,3-dioxoisoindolin-4-yl}acetamide] | 128 to 129 °C
CCOc1cc([C@@H](CC(C)=O)N2C(=O)c3cccc(NC(C)=O)c3C2=O)ccc1OC [Example 27, N-{2-[1R-(3-ethoxy-4-methoxyphenyl)-3-oxobutyl]-1,3-dioxoisoindolin-4-yl}acetamide] | 81 to 83 °C
CCOc1cc(C(CS(C)(=O)=O)N2C(=O)c3cccc(NC(=O)C4CCCC4)c3C2=O)ccc1OC (centres unmarked) [Example 45, Cyclopentyl-N-{2-[1-(3-ethoxy-4-methoxyphenyl)-2-(methylsulfonyl)ethyl]-1,3-dioxoisoindolin-4-yl}carboxamide] | 134 to 136 °C
CCOc1cc(C(CS(C)(=O)=O)N2C(=O)c3cccc(NC(=O)CCN(C)C)c3C2=O)ccc1OC (centres unmarked) [Example 46, 3-(Dimethylamino)-N-{2-[1-(3-ethoxy-4-methoxyphenyl)-2-(methylsulfonyl)ethyl]-1,3-dioxoisoindolin-4-yl}propanamide] | 163 to 165 °C
CCOc1cc([C@@H](CS(C)(=O)=O)N2C(=O)c3cccc(NC(=O)C4CC4)c3C2=O)ccc1OC [Example 51, Cyclopropyl-N-{2-[(1S)-1-(3-ethoxy-4-methoxyphenyl)-2-(methylsulfonyl)ethyl]-1,3-dioxoisoindolin-4-yl}carboxamide] | 140 to 141 °C
COc1ccc(C(CS(C)(=O)=O)N2C(=O)c3cccc(NC(=O)C4CC4)c3C2=O)cc1OC (centres unmarked) [Example 54, Cyclopropyl-N-{2-[1-(3,4-dimethoxyphenyl)-2-(methylsulfonyl)ethyl]-1,3-dioxoisoindolin-4-yl}carboxamide] | 130 to 132 °C
CCOc1cc([C@@H](CC(=O)N(C)C)N2Cc3cccc(NC(C)=O)c3C2=O)ccc1OC [Example 59, (3R)-3-[7-(Acetylamino)-1-oxoisoindolin-2-yl]-3-(3-ethoxy-4-methoxyphenyl)-N,N-dimethylpropanamide] | 88 to 90 °C
CCOc1cc([C@@H](CC(=O)N(C)C)N2Cc3cccc(NC(=O)C4CC4)c3C2=O)ccc1OC [Example 60, (3R)-3-[7-(Cyclopropylcarbonylamino)-1-oxoisoindolin-2-yl]-3-(3-ethoxy-4-methoxyphenyl)-N,N-dimethylpropanamide] | 92 to 94 °C
CCOc1cc(C(CS(C)(=O)=O)N2C(=O)c3cccc(CNC(C)=O)c3C2=O)ccc1OC (centres unmarked) [Example 66, N-({2-[1-(3-Ethoxy-4-methoxyphenyl)-2-(methylsulfonyl)ethyl]-1,3-dioxoisoindolin-4-yl}methyl)acetamide] | 84 to 86 °C
CCOc1cc(C(CS(C)(=O)=O)N2C(=O)c3cccc(N(S(C)(=O)=O)S(C)(=O)=O)c3C2=O)ccc1OC (centres unmarked) [Example 69, 4-[Bis(methylsulfonyl)amino]-2-[1-(3-ethoxy-4-methoxyphenyl)-2-(methyl-sulfonyl)ethyl]isoindoline-1,3-dione] | 277 to 279 °C
CCOc1cc(C(CC(=O)CC)N2C(=O)c3cccc(NC(C)=O)c3C2=O)ccc1OC (centres unmarked) [Example 72, N-{2-[1-(3-Ethoxy-4-methoxyphenyl)-3-oxopentyl]1,3-dioxoisoindolin-4-yl}acetamide] | 137 to 139 °C
COc1ccc(C(CC(C)=O)N2C(=O)c3cccc(NC(C)=O)c3C2=O)cc1OC1CCCC1 (centres unmarked) [Example 76, N-{2-[1-(3-Cyclopentyloxy-4-methoxyphenyl)-3-oxobutyl]-1,3-dioxoisoindolin-4-yl}acetamide] | 145 to 147 °C
COc1ccc(C(CC(C)=O)N2C(=O)c3cccc(N(S(C)(=O)=O)S(C)(=O)=O)c3C2=O)cc1OC (centres unmarked) [Example 78, 2-[1-(3,4-Dimethoxyphenyl)-3-oxobutyl]-4-[bis(methylsulfonyl)amino]isoindoline-1,3-dione] | 194 to 196 °C
